Experiments:
Assay in all cases: relative viability (nuclei count vs DMSO), 5 days (fraction); higher = more cells survive
CUDC-101 + Olaparib = compound: C#Cc1cccc(Nc2ncnc3cc(OC)c(OCCCCCCC(=O)NO)cc23)c1 [CUDC-101] + O=C(c1cc(Cc2n[nH]c(=O)c3ccccc23)ccc1F)N1CCN(C(=O)C2CC2)CC1 [Olaparib] (partner 8 µM)
Outline: (§1)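 For relative viability, nuclei counts in treated wells were divided by those in vehicle wells. Lung cancer cell lines had been pin-tool dosed in 1536-well plates the day after seeding and cultured for 5 days, then fixed and stained in one step (final 0.05% Triton X-100, 1% formaldehyde, 1 ug/ml Hoechst) and imaged at 4×. Doses were one drug alone or a fixed anchor-drug dose plus five library-drug doses (not always all listed) in √10 steps, and values are duplicate-plate medians.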

[1] = compound: C1=CC=C2C(=C1)N=C(S2)C(C#N)C3=NC(=NC=C3)NCCC4=CN=CC=C4 + Nc1nc2[nH]cc(CCc3ccc(C(=O)N[C@@H](CCC(=O)O)C(=O)O)cc3)c2c(=O)[nH]1 [Pemetrexed] (partner 0.2 µM)
Outline: as §1

Vandetanib + Crizotinib = compound: COc1cc2/c(=N/c3ccc(Br)cc3F)nc[nH]c2cc1OCC1CCN(C)CC1 [Vandetanib] + C[C@@H](Oc1cc(-c2cnn(C3CCNCC3)c2)cnc1N)c1c(Cl)ccc(F)c1Cl [Crizotinib] (partner 1 µM)
Outline: as §1

Vandetanib + Pemetrexed = compound: COc1cc2/c(=N/c3ccc(Br)cc3F)nc[nH]c2cc1OCC1CCN(C)CC1 [Vandetanib] + Nc1nc2[nH]cc(CCc3ccc(C(=O)N[C@@H](CCC(=O)O)C(=O)O)cc3)c2c(=O)[nH]1 [Pemetrexed] (partner 0.2 µM)
Outline: as §1

Cell Line | relative viability (CUDC-101 + Olaparib; first compound 0.01 µM) | relative viability (CUDC-101 + Olaparib; first compound 0.03162 µM) | relative viability (CUDC-101 + Olaparib; first compound 0.1 µM) | relative viability (CUDC-101 + Olaparib; first compound 0.3162 µM) | relative viability (CUDC-101 + Olaparib; first compound 1 µM) | relative viability ([1]; first compound 0.01581 µM) | relative viability ([1]; first compound 0.05 µM) | relative viability ([1]; first compound 0.1581 µM) | relative viability ([1]; first compound 0.5 µM) | relative viability (Vandetanib + Crizotinib; first compound 0.02 µM) | relative viability (Vandetanib + Crizotinib; first compound 0.06325 µM) | relative viability (Vandetanib + Crizotinib; first compound 0.2 µM) | relative viability (Vandetanib + Crizotinib; first compound 0.6325 µM) | relative viability (Vandetanib + Crizotinib; first compound 2 µM) | relative viability (Vandetanib + Pemetrexed; first compound 0.02 µM) | relative viability (Vandetanib + Pemetrexed; first compound 0.06325 µM) | relative viability (Vandetanib + Pemetrexed; first compound 0.2 µM) | relative viability (Vandetanib + Pemetrexed; first compound 0.6325 µM) | relative viability (Vandetanib + Pemetrexed; first compound 2 µM) | relative viability ([1]; first compound 0.005 µM)
NCI-H1792 | 0.495 | 0.379 | 0.381 | 0.407 | 0.278 | 0.889 | 0.875 | 1.22 | 0.335 | 0.941 | 0.973 | 0.924 | 0.991 | 0.894 | 0.834 | 0.733 | 0.733 | 0.822 | 0.771 | 
NCI-H1355 | 0.756 | 0.711 | 0.726 | 0.693 | 0.585 | 1.01 | 1.02 | 1.13 | 1.02 | 1.03 | 0.976 | 0.637 | 0.996 | 1.04 | 1.03 | 0.994 | 1.05 | 0.985 | 1.06 | 1.05
HCC-827 | 0.718 | 0.302 | 0.157 | 0.221 | 0.123 | 0.239 | 0.25 | 0.264 | 0.259 | 0.983 | 0.93 | 0.851 | 0.242 | 0.192 | 0.245 | 0.241 | 0.263 | 0.173 | 0.171 | 0.238
NCI-H1944 | 0.4 | 0.349 | 0.353 | 0.333 | 0.235 | 0.665 | 0.66 | 0.558 | 0.576 | 1.01 | 1.1 | 1.15 | 1.07 | 0.942 | 0.615 | 0.566 | 0.682 | 0.564 | 0.58 | 0.605
NCI-H2405 | 0.901 | 0.844 | 0.861 | 0.908 | 0.817 | 0.998 | 1.07 | 1.1 | 0.98 | 0.876 | 0.664 | 0.875 | 0.88 | 0.795 | 0.987 | 0.982 | 1.01 | 1.08 | 0.836 | 1.14
NCI-H650 | 0.393 | 0.377 | 0.337 | 0.299 | 0.185 | 0.879 | 0.905 | 0.924 | 1.14 | 0.709 | 0.703 | 0.758 | 0.605 | 0.724 | 0.844 | 0.801 | 0.869 | 0.964 | 0.873 | 0.938
HCC-366 | 0.363 | 0.353 | 0.325 | 0.345 | 0.245 | 0.146 | 0.145 | 0.165 | 0.164 | 0.617 | 0.569 | 0.608 | 0.609 | 0.518 | 0.128 | 0.149 | 0.155 | 0.17 | 0.176 | 0.177
NCI-H838 | 0.802 | 0.784 | 0.807 | 0.649 | 0.489 | 0.242 | 0.243 | 0.262 | 0.249 | 0.819 | 0.846 | 0.898 | 0.819 | 0.724 | 0.242 | 0.243 | 0.251 | 0.232 | 0.237 | 0.216
NCI-H520 | 0.298 | 0.325 | 0.305 | 0.298 | 0.194 | 0.652 | 0.784 | 0.834 | 0.818 | 0.923 | 0.894 | 0.859 | 0.772 | 0.655 | 0.705 | 0.646 | 0.607 | 0.783 | 0.679 | 0.528
NCI-H358 | 0.641 | 0.625 | 0.66 | 0.543 | 0.408 | 0.173 | 0.169 | 0.165 | 0.188 | 0.659 | 0.636 | 0.137 | 0.397 | 0.321 | 0.173 | 0.17 | 0.17 | 0.165 | 0.162 | 0.265
HOP-62 | 0.31 | 0.465 | 0.359 | 0.29 | 0.477 | 0.337 | 0.33 | 0.345 | 0.351 | 1.03 | 0.919 | 0.695 | 1.01 | 1.11 | 0.325 | 0.358 | 0.438 | 0.299 | 0.291 | 0.344
NCI-H2170 | 0.643 | 0.625 | 0.576 | 0.583 | 0.386 | 0.26 | 0.27 | 0.27 | 0.274 | 1.22 | 1.26 | 1.11 | 1.18 | 1.1 | 0.278 | 0.249 | 0.265 | 0.262 | 0.268 | 0.275
NCI-H1651 | 0.194 | 0.209 | 0.192 | 0.2 | 0.182 | 0.527 | 0.597 | 0.708 | 0.381 | 0.837 | 0.851 | 0.831 | 0.898 | 0.781 | 0.579 | 0.583 | 0.555 | 0.5 | 0.505 | 0.41
NCI-H460 | 0.458 | 0.42 | 0.428 | 0.465 | 0.349 | 0.0618 | 0.0556 | 0.0607 | 0.0831 | 0.902 | 0.786 | 0.0179 | 0.972 | 0.804 | 0.0623 | 0.0604 | 0.0622 | 0.0619 | 0.0589 | 
NCI-H1734 | 0.663 | 0.606 | 0.59 | 0.697 | 0.499 | 0.405 | 0.416 | 0.434 | 0.418 | 0.737 | 0.618 | 0.67 | 0.639 | 0.648 | 0.4 | 0.388 | 0.41 | 0.404 | 0.467 | 0.412
NCI-H1915 | 0.25 | 0.232 | 0.225 | 0.229 | 0.164 | 0.506 | 0.434 | 0.563 | 0.481 | 0.842 | 0.889 | 0.933 | 0.857 | 0.892 | 0.496 | 0.509 | 0.523 | 0.505 | 0.477 | 
NCI-H661 | 0.795 | 0.69 | 0.632 | 0.611 | 0.437 | 0.916 | 0.85 | 0.904 | 0.876 | 0.969 |  | 0.99 | 1.06 | 1.03 | 0.882 | 0.938 | 0.98 | 0.907 | 0.907 | 0.84
NCI-H2228 | 0.756 | 0.783 | 1.03 | 0.659 | 0.653 | 0.324 | 0.305 | 0.379 | 0.259 | 0.446 | 0.473 |  | 0.484 | 0.479 | 0.284 | 0.337 | 0.337 | 0.343 | 0.292 | 0.302
NCI-H1975 | 0.853 | 0.737 | 0.818 | 0.859 | 0.745 | 0.303 | 0.295 | 0.331 | 0.26 | 0.887 | 0.943 | 0.922 | 0.994 | 0.852 | 0.296 | 0.275 | 0.268 | 0.285 | 0.306 | 0.286
NCI-H2087 | 0.698 | 0.614 | 0.522 | 0.578 | 0.488 | 0.661 | 0.634 | 0.645 | 0.645 | 0.785 | 0.949 | 0.835 | 0.88 | 0.904 | 0.661 | 0.64 | 0.619 | 0.641 | 0.623 | 0.616
LCLC-97TM1 | 0.452 | 0.4 | 0.368 | 0.446 | 0.437 | 0.185 | 0.181 | 0.172 | 0.198 | 0.32 | 0.342 | 0.232 | 0.459 | 0.441 | 0.18 | 0.184 | 0.166 | 0.181 | 0.181 | 0.196
EPLC-272H | 0.885 | 0.703 | 0.596 | 0.448 | 0.365 | 0.255 | 0.317 | 0.325 | 0.326 | 1.01 | 0.732 | 0.961 | 0.845 | 0.917 | 0.447 | 0.299 | 0.399 | 0.341 | 0.287 | 
CAL-12T | 0.734 | 0.681 | 0.752 | 0.772 | 0.668 | 1.19 | 1.11 | 1.43 | 0.88 | 0.778 | 0.846 | 0.799 | 0.707 | 0.364 | 1.14 | 1.2 | 1.32 | 1.18 | 1.17 | 0.575
NCI-H1755 | 0.873 | 0.933 | 0.904 | 0.853 | 0.753 | 0.466 | 0.413 | 0.441 | 0.424 | 0.853 | 0.843 | 0.789 | 0.85 | 0.829 | 0.396 | 0.53 | 0.464 | 0.482 | 0.451 | 0.456
H3255 | 0.653 | 0.547 | 0.512 | 0.442 | 0.264 | 0.558 | 0.532 | 0.622 | 0.584 | 0.882 | 0.847 | 0.739 | 0.519 | 0.208 | 0.566 | 0.482 | 0.49 | 0.444 | 0.357 | 0.568
NCI-H441 | 0.628 | 0.556 | 0.679 | 0.572 | 0.479 | 0.279 | 0.238 | 0.276 | 0.265 | 0.926 | 0.751 | 0.687 | 0.88 | 0.856 | 0.252 | 0.269 | 0.27 | 0.263 | 0.263 | 0.317
LK-2 | 0.821 | 0.754 | 0.597 | 0.495 | 0.281 | 0.27 | 0.295 | 0.325 | 0.281 | 0.217 | 0.222 | 0.225 | 0.219 | 0.233 | 0.259 | 0.228 | 0.284 | 0.276 | 0.245 | 0.237
